From patent publication EP2508526A1, “Spiroalkene carboxamide derivatives and their use as chemokine receptor modulators” (Ares Trading SA, priority 2011, dated 2012) come the findings set out here.

The term Ki denotes a dissociation constant, usually derived from enzyme kinetics or from competition with a known ligand.

Counter-ions that a name gives are not always drawn.

In this experiment the target is T1, hCCR2b (Homo sapiens, UniProt P41597).
T1 sequence (P41597 1-360 isoform P41597-2): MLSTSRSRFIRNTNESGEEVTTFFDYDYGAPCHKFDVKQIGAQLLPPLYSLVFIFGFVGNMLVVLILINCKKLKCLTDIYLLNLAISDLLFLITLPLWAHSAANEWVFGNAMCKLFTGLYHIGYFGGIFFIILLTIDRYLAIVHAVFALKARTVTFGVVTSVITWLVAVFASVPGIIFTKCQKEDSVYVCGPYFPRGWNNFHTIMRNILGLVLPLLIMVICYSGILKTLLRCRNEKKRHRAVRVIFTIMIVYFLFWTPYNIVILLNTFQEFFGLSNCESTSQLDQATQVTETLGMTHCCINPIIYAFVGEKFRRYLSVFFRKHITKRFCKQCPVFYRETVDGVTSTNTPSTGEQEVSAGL
Description: CCR2 binding assay ([125I]MCP-1, SPA, CHO cell membranes). To be noted: membranes from CHO cells expressing hCCR2b, 50 pM [125I]MCP-1; read-out: Binding hCCR2 (Ki). On the set-up: expressed in transfected cells; host or cells: CHO cells (membrane preparation). The procedure: Membranes were prepared from CHO cells expressing mCCR2b or hCCR2b for use in ligand binding studies. Cells were suspended in 50mM Tris-HCL, pH 7.4, 2 mM EDTA, 250 mM Sucrose and 1x Complete EDTA-free protease inhibitor cocktail (Roche) (Buffer A), and disrupted at 4°C by N2 decompression using a cell disruption bomb (Parr Instrument). Following centrifugation at 200 RCF for 10 min at 4°C, the supernatant was suspended in buffer A and centrifuged again at 19000 RPM (RCSC rotor SS34 code 05 Sorvall Instruments DUPONT) for 90 min at 4°C. The pellet was then suspended in 10 mM HEPES, pH 7.4, 1 mM EDTA, 250 mM Sucrose, and 1x Complete EDTA-free protease inhibitor cocktail (Buffer B) and homogenized using a potter. Membranes were flash frozen in liquid N2 and stored at -80°C. [125I] Monocyte Chemoattractant Protein -1 (MCP-1) (25µCi; Perkin Elmer) was added to test compounds in DMSO (1% final). Membranes and WGA SPA beads (GE Healthcare) were added to give a final volume of 100 µl in 96-well plates with assay concentrations of 50 pM or 100 pM [125I]Monocyte Chemoattractant Protein -1 (respectively for hCCR2b or mCCR2b), 50 mM HEPES, pH 7.4, 5 mM MgCl2, 1 mM CaCl2, 0.1% BSA, 1-5 µg/well of membranes and 100 µg/well of WGA SPA beads. Binding was performed for 90 min at RT with strong agitation of speed 5 (Heidolph Titramax 100 SCITEC) and bound radioactivity was measured on a PerkinElmer 1450 MicroBeta counter. Specific binding was calculated by subtracting remaining radioactivity in the presence of 1000-fold excess of unlabeled compound. Binding data were analyzed using the Genedata Screener® software.

As for `CO[C@@H]1COCC[C@@H]1N1CCC2(CC1)OC(=O)C(C)=C2C(=O)N1CCc2ncc(C(F)(F)F)cc2C1` (single isomer, unassigned) [Compound 44, (-)-1,5-anhydro-2,3-dideoxy-4-O-methyl-3-(3-methyl-2-oxo-4-{[3-(trifluoromethyl)-7,8-dihydro-1,6-naphthyridin-6(5H)-yl]carbonyl}-1-oxa-8-azaspiro[4.5]dec-3-en-8-yl)-pentitol], the Ki lay within 100 to 500 nM.
For the compound `COC1COCCC1N1CCC2(CC1)OC(=O)C(C)=C2C(=O)N1CCc2ccc(C(F)(F)F)cc2C1` (single isomer, unassigned; (+)) [Compound 41, (+)-1,5-anhydro-3,4-dideoxy-2-O-methyl-3-(3-methyl-2-oxo-4-{[7-(trifluoromethyl)-3,4-dihydroisoquinolin-2(1H)-yl]carbonyl}-1-oxa-8-azaspiro[4.5]dec-3-en-8-yl)-pentitol], the Ki was less than 50 nM.
For the compound `COC1COCCC1N1CCC2(CC1)OC(=O)C(C)=C2C(=O)N1CCc2ncc(C(F)(F)F)cc2C1` (single isomer, unassigned; (+)) [Compound 48, (+)-1,5-anhydro-3,4-dideoxy-2-O-methyl-3-(3-methyl-2-oxo-4-{[3-(trifluoromethyl)-7,8-dihydro-1,6-naphthyridin-6(5H)-yl]carbonyl}-1-oxa-8-azaspiro[4.5]dec-3-en-8-yl)-pentitol], the Ki lay within 100 to 500 nM.
For the compound `COC1COCCC1N1CCC2(CC1)OC(=O)C(C)=C2C(=O)N1CCc2ccc(C(F)(F)F)cc2C1` (single isomer, unassigned; (-)) [Compound 40, (-)-1,5-anhydro-2,3-dideoxy-4-O-methyl-3-(3-methyl-2-oxo-4-{[7-(trifluoromethyl)-3,4-dihydroisoquinolin-2(1H)-yl]carbonyl}-1-oxa-8-azaspiro[4.5]dec-3-en-8-yl) -pentitol], the Ki is less than 50 nM.
With `COC(CN1CCC2(CC1)OC(=O)C(C)=C2C(=O)N1CCN(c2cccc(C(F)(F)F)c2)CC1)c1ccccc1` (stereo not shown) [Compound 7, 8-(2-methoxy-2-phenylethyl)-3-methyl-4-({4-[3-(trifluoromethyl)phenyl]piperazin-1-yl}carbonyl)-1-oxa-8-azaspiro[4.5]dec-3-en-2-one], the Ki was 50 to 100 nM.
Turning to `COc1cccc(CCN2CCC3(CC2)OC(=O)C(C)=C3C(=O)N2CCN(c3cccc(C(F)(F)F)c3)CC2)c1` [Compound 8, 8-[2-(3-methoxyphenyl)ethyl]-3-methyl-4-({4-[3-(trifluoromethyl)pheny)]piperazin-1-yl}carbonyl)-1-oxa-8-azaspiro[4.5]dec-3-en-2-one, dihydrochloride salt], the Ki is less than 50 nM.
For `CC1=C(C(=O)N2CCN(c3cccc(C(F)(F)F)c3)CC2)C2(CCN(CC(=O)O)CC2)OC1=O` [Compound 9, [3-methyl-2-oxo-4-({4-[3-(trifluoromethyl)phenyl]piperazin-1-yl}carbonyl)-1-oxa-8-azaspiro[4.5]dec-3-en-8-yl]acetic acid], the Ki was in the range of 100 to 500 nM.
For `CC1=C(C(=O)N2CCN(c3cccc(C(F)(F)F)c3)CC2)C2(CCN(CCC(=O)O)CC2)OC1=O` [Compound 10, 3-[3-methyl-2-oxo-4-({4-[3-(trifluoromethyl)phenyl]piperazin-1-yl}carbonyl)-1-oxa-8-azaspiro[4.5]dec-3-en-8-yl]propanoic acid], the Ki is 100 to 500 nM.
Regarding `CC1=C(C(=O)N2CCN(c3cccc(C(F)(F)F)c3)CC2)C2(CCN(CCCC(=O)O)CC2)OC1=O` [Compound 11, 4-[3-methyl-2-oxo-4-({4-[3-(trifluoromethyl)phenyl]piperazin-1-yl}carbonyl)-1-oxa-8-azaspiro[4.5]dec-3-en-8-yl]butanoic acid], the Ki was in the range of 100 to 500 nM.
On to `CC1=C(C(=O)N2CCN(c3cccc(C(F)(F)F)c3)CC2)C2(CCN(CCc3ccncc3)CC2)OC1=O` [Compound 12, 3-methyl-8-(2-pyridin-4-ylethyl)-4-({4-[3-(trifluoromethyl)phenyl]piperazin-1-yl}carbonyl)-1-oxa-8-azaspiro[4.5]dec-3-en-2-one], for which the Ki was 50 to 100 nM.
For `CC1=C(C(=O)N2CCN(c3cccc(C(F)(F)F)c3)CC2)C2(CCN(CCc3ccc(Cl)cc3)CC2)OC1=O` [Compound 13, 8-[2-(4-chlorophenyl)ethyl]-3-methyl-4-({4-[3-(trifluoromethyl)phenyl]piperazin-1-yl}carbonyl)-1-oxa-8-azaspiro[4.5]dec-3-en-2-one], the Ki was less than 50 nM.
On to `CC1=C(C(=O)N2CCN(c3cccc(C(F)(F)F)c3)CC2)C2(CCN(CCc3ccccc3Cl)CC2)OC1=O` [Compound 14, 8-[2-(2-chlorophenyl)ethyl]-3-methyl-4-({4-[3-(trifluoromethyl)phenyl]piperazin-1-yl}carbonyl)-1-oxa-8-azaspiro[4.5]dec-3-en-2-one], for which the Ki was 100 to 500 nM.
To `CC1=C(C(=O)N2CCN(c3cccc(C(F)(F)F)c3)CC2)C2(CCN(CCc3cccc(Cl)c3)CC2)OC1=O` [Compound 15, 8-[2-(3-chlorophenyl)ethyl]-3-methyl-4-({4-[3-(trifluoromethyl)phenyl]piperazin-1-yl}carbonyl)-1-oxa-8-azaspiro[4.5]dec-3-en-2-one] belongs less than 50 nM.
On to `COCCN1CCC2(CC1)OC(=O)C(C)=C2C(=O)N1CCc2ccc(C(F)(F)F)cc2C1` [Compound 16, 8-(2-methoxyethyl)-3-methyl-4-{[7-(trifluoromethyl)-3,4-dihydroisoquinolin-2(1H)-yl]carbonyl}-1-oxa-8-azaspiro[4.5]dec-3-en-2-one], for which the Ki is less than 50 nM.
As for `CC1=C(C(=O)N2CCc3ccc(C(F)(F)F)cc3C2)C2(CCN(CCF)CC2)OC1=O` [Compound 17, 8-(2-fluoroethyl)-3-methyl-4-{[7-(trifluoromethyl)-3,4-dihydroisoquinolin-2(1H)-yl]carbonyl}-1-oxa-8-azaspiro[4.5]dec-3-en-2-one], the Ki was less than 50 nM.
For the compound `COCCCN1CCC2(CC1)OC(=O)C(C)=C2C(=O)N1CCc2ccc(C(F)(F)F)cc2C1` [Compound 18, 8-(3-methoxypropyl)-3-methyl-4-{[7-(trifluoromethyl)-3,4-dihydroisoquinolin-2(1H)-yl]carbonyl}-1-oxa-8-azaspiro[4.5]dec-3-en-2-one], the inhibition constant Ki is less than 50 nM.
Take `CC1=C(C(=O)N2CCc3ccc(C(F)(F)F)cc3C2)C2(CCN(CCN3CCOCC3)CC2)OC1=O` [Compound 19, 3-methyl-8-(2-morpholin-4-ylethyl)-4-{[7-(trifluoromethyl)-3,4-dihydroisoquinolin-2(1H)-yl]carbonyl}-1-oxa-8-azaspiro[4.5]dec-3-en-2-one]: the inhibition constant Ki is less than 50 nM.
To `CC1=C(C(=O)N2CCc3ccc(C(F)(F)F)cc3C2)C2(CCN(CCO)CC2)OC1=O` [Compound 20, 8-(2-hydroxyethyl)-3-methyl-4-{[7-(trifluoromethyl)-3,4-dihydroisoquinolin-2(1H)-yl]carbonyl}-1-oxa-8-azaspiro[4.5]dec-3-en-2-one] belongs less than 50 nM; to `CC1=C(C(=O)N2CCN(c3cccc(C(F)(F)F)c3)CC2)C2(CCN(C3CCOCC3)CC2)OC1=O` [Compound 21, 3-methyl-8-(tetrahydro-2H-pyran-4-yl)-4-({4-[3-(trifluoromethyl)phenyl]piperazin-1-yl}carbonyl)-1-oxa-8-azaspiro[4.5]dec-3-en-2-one], less than 50 nM.
